Test results reported in US5637596A, “Azabicycloalkyl derivatives of imidazo[1,5-a]indol-3-one and process for their preparation” (Pharmacia S.p.A., priority 1994, dated 1997).

Assays:
[1] = biological target: T1, 5HT3 receptor (Rattus norvegicus, UniProt P35563); experiment: Inhibition of the von Bezold-Jarisch chemoreflex evoked by 5-HT in the anesthetized rat (in-vivo 5HT3 antagonist activity); conditions: von Bezold-Jarisch reflex elicited by 5-HT (30 μg/kg i.v.); for ED50: iv, limits printed on the next line; for % inhibition: dose 100 μg/kg i.v., N = 6, mean
T1 construct: chemoreflex evoked by 5HT in the anesthetized rat; from tissue; host or cells: anesthetized rat, whole animal (endogenous receptor)
T1 sequence (P35563 24-483): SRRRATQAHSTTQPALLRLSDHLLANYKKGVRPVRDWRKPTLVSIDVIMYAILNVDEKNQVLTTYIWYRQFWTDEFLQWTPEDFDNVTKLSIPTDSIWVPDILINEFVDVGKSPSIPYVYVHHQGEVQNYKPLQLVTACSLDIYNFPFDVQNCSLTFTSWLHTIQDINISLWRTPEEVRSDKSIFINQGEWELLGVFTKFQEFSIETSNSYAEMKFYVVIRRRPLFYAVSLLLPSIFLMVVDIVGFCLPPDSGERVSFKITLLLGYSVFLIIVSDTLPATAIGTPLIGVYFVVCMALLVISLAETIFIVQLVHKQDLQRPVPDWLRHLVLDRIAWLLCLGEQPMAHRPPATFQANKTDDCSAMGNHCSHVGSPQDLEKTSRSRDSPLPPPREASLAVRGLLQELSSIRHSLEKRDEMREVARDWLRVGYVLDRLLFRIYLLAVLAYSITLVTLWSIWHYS
Protocol: Pharmacol. 326, 36-44 (1984).
The following Table I reports in-vivo 5HT3 antagonist activity data obtained in this test for two representative compounds of the invention.
Inhibition of the von Bezold-Jarisch reflex
elicited by 5-HT (30 μg/kg i.v.) by FCE
compounds in the anesthetized rat. Values are
mean ± in S.E.M. from N animals

[2] = biological target: T2, serotonin 5HT3 receptors (Rattus norvegicus, UniProt P35563); experiment: Affinity for serotonin 5HT3 receptors in rat entorhinal cortex using radioligand 3H-BRL 43694; type: binding
T2 construct: assessed for instance in rat entorhinal cortex using a selective radioligand; from tissue; host or cells: rat entorhinal cortex
T2 sequence (P35563 24-483): T1 sequence (P35563 24-483)
Protocol: The affinity for serotonin 5HT3 receptors was assessed for instance in rat entorhinal cortex using a selective radioligand ^3 H-BRL 43694 as described by Nelson and Thomas (1989).
Nelson D. R. and Thomas D. R., [^3 H]-BRL 43694 (Granisetron), a specific ligand for 5HT3 binding sites in rat brain cortical membranes, Biochem. Pharmac., 38, 1693-1695, 1989.
The following Table II summarized the data obtained in this in-vitro test for two representative compounds of the invention.
5-HT3 binding affinity for rat enthiorinal cortex

Row | Compound | ED50 [1] | % inhibition [1] | IC50 [2]
1 | CN1C2CCC1CC(N1Cc3cc4ccccc4n3C1=O)C2 (stereo not drawn) [FCE 28837, (endo)-2-(8-methyl-8-azabicyclo[3.2.1]oct-3-yl)-1,2-dihydro-imidazo[1,5-a]indol-3-one] | 0.0118 mg/kg | 88.5% | 10 nM
2 | Cl.O=C1N(C2CN3CCC2CC3)Cc2cc3ccccc3n21 (stereo not drawn) [FCE 28841, 2-(1-azabicyclo[2.2.2]oct-3-yl)-1,2-dihydro-imidazo[1,5-a]indol-3-one hydrochloride] | 0.0218 mg/kg | 90.71% | 7 nM
